The values that follow come from ChEMBL document CHEMBL1146988, “The spermicidal and antitrichomonas activities of SSRI antidepressants” (2006).

Where only a bound is given, the exact number is not on record here.

The test system of one test is Trichomonas vaginalis. The test can be described thus: Antitrichomonas activity against Trichomonas vaginalis after 48 hrs. The format is functional.
Another test relates to Spermatozoa. Nature of the test: Spermicidal activity against human spermatozoa. The format is functional.

Take `CNCCC(Oc1ccc(C(F)(F)F)cc1)c1ccccc1.Cl` (stereo unspecified) [FLUOXETINE HYDROCHLORIDE]: the MLC in the test with Trichomonas vaginalis was found to be 0.003%.
`COCCCC/C(=N\OCCN)c1ccc(C(F)(F)F)cc1.O=C(O)/C=C\C(=O)O` [FLUVOXAMINE MALEATE]: in the test with Spermatozoa, the ED50 was 0.005% and the MEC is 0.1%. In the test with Trichomonas vaginalis, this compound registered an MLC of 0.005% and an MLC50 of 0.003%.
With `CCCCCCCCCc1ccc(OCCOCCOCCOCCOCCOCCOCCOCCOCCO)cc1` [NONOXYNOL 9], in the test on Spermatozoa, the ED50 came to 0.01% and the MEC is 0.05%. In the test on Trichomonas vaginalis, this compound came in with an MLC of 0.002% and an MLC50 of 0.0009%.
Take `Cl.Cl.Fc1ccc([C@@H]2CCNC[C@H]2COc2ccc3c(c2)OCO3)cc1.Fc1ccc([C@@H]2CCNC[C@H]2COc2ccc3c(c2)OCO3)cc1.O` [PAROXETINE HYDROCHLORIDE]: in the test on Spermatozoa, the ED50 is given as 0.008% and the MEC worked out at 0.1%. Moreover, the MLC with Trichomonas vaginalis is recorded as above 0.01%.
The compound `Cl.NCCc1c[nH]c2ccc(O)cc12` [SEROTONIN HYDROCHLORIDE] yielded an MEC with Spermatozoa above 1%.
In turn, `CN[C@H]1CC[C@@H](c2ccc(Cl)c(Cl)c2)c2ccccc21.Cl` [SERTRALINE HYDROCHLORIDE] came in with an MEC with Spermatozoa of 0.5%. Moreover, in the test with Trichomonas vaginalis, the MLC is 0.003% and the MLC50 was found to be 0.0012%.
